Source: patent US7553867B2, “Furan or thiophene derivative and medicinal use thereof” (Takeda Pharmaceutical Company Limited, priority 2002, dated 2009)

| SMILES | melting point [°C] |
| --- | --- |
| Cc1oc(-c2ccc(F)cc2)cc1C(=O)N(C)c1cccc(CSCC(=O)O)c1 [Example 1(1), [(3{[5-(4-Fluorophenyl)-2-methyl-3-furoyl](methyl)amino}benzyl)thio]acetic acid] | 155 to 156 |
| CCCN(C(=O)c1cc(-c2ccc(F)cc2)oc1C)c1cccc(CSCC(=O)O)c1 [Example 1(2), [(3{[5-(4-Fluorophenyl)-2-methyl-3-furoyl](propyl)amino}benzyl)thio]acetic acid] | 140 to 141 |
| O=C(O)CSCc1cccc(NC(=O)c2ccc(-c3ccc(Cl)cc3)o2)c1 [Example 2(3), [(3-{[5-(4-Chlorophenyl)-2-furoyl]amino}benzyl]thio]acetic acid] | 173 to 174 |
| CCCCc1oc(-c2ccc(C(F)(F)F)cc2)cc1CCC(=O)Nc1cccc(CSCC(=O)O)c1 [Example 2(5), ({3-[(3-{2-Butyl-5-[4-(trifluoromethyl)phenyl]-3-furyl}propionyl)amino)benzyl}thio) acetic acid] | 137 to 138 |
| Cc1oc(-c2ccc(C(F)(F)F)cc2)cc1CC(=O)Nc1cccc(CSCC(=O)O)c1 [Example 4(1), ({3-[({2-Methyl-5-[4-(trifluoromethyl)phenyl]-3-furyl}acetyl)amino]benzyl}thio)acetic acid] | 173 to 174 |
| Cc1oc(-c2ccc(OC(F)(F)F)cc2)cc1C(=O)Nc1cccc(CSCC(=O)O)c1 [Example 4(2)] | 200 to 202 |
| O=C(O)CSCc1cccc(OCc2cc(-c3ccccc3)oc2C(F)(F)F)c1 [Example 5(4), [(3-{[5-Phenyl-2-(trifluoromethyl)-3-furyl]methoxy}benzyl)thio]acetic acid] | 84 to 85 |
| Cc1cc(OCc2cc(-c3ccc(C(F)(F)F)cc3)oc2C)ccc1CC(=O)O [Example 6(3), [2-Methyl-4-({2-methyl-5-[4-(trifluoromethyl)phenyl]-3-furyl}methoxy)phenyl]acetic acid] | 147 to 149 |
| Cc1oc(-c2ccc(C(F)(F)F)cc2)cc1COc1ccc(OC(C)(C)C(=O)O)cc1 [Example 6(5), 2-Methyl-2-[4-({2-methyl-5-[4-(trifluoromethyl)phenyl]-3-furyl}methoxy)phenoxy]propionic acid] | 134 to 135 |
| Cc1oc(-c2ccc(C(F)(F)F)cc2)cc1CCCOc1ccc(CC(=O)O)cc1 [Example 6(8), [4-(3-{2-Methyl-5-[4-(trifluoromethyl)phenyl]-3-furyl}propoxy)phenyl]acetic acid] | 113 to 114 |
| Cc1oc(-c2ccc(C(F)(F)F)cc2)cc1COc1ccc(CC(=O)O)cc1 [Example 6(9), [4-({2-Methyl-5-[4-(trifluoromethyl)phenyl]-3-furyl}methoxy)phenyl]acetic acid] | 147 to 149 |
| COc1cc(OCc2cc(-c3ccc(C(F)(F)F)cc3)oc2C)ccc1CC(=O)O [Example 6(10), [2-Methoxy-4-({2-methyl-5-[4-(trifluoromethyl)phenyl]-3-furyl}methoxy)phenyl]acetic acid] | 168 to 169 |
| Cc1oc(-c2ccc(F)cc2)cc1COc1cccc(COCC(=O)O)c1 [Example 6(11), [(3-{[5-(4-Fluorophenyl)-2-methyl-3-furyl]methoxy}benzyl)oxy]acetic acid] | 109 to 110 |
| Cc1oc(-c2ccc(C(F)(F)F)cc2)cc1CCOc1ccc(CC(=O)O)cc1 [Example 6(13), [4-(2-{2-Methyl-5-[4-(trifluoromethyl)phenyl]-3-furyl}ethoxy)phenyl]acetic acid] | 115 to 116 |
| CCCCc1oc(-c2ccc(C(F)(F)F)cc2)cc1CCCOc1cccc(CC(=O)O)c1 [Example 6(15), [3-(3-{2-Butyl-5-[4-(trifluoromethyl)phenyl]-3-furyl}propoxy)phenyl]acetic acid] | 80 to 82 |
| CCCCc1oc(-c2ccc(C(F)(F)F)cc2)cc1CCCOc1ccc(CC(=O)O)cc1 [Example 6(16), [4-(3-{2-Butyl-5-[4-(trifluoromethyl)phenyl]-3-furyl}propoxy)phenyl]acetic acid] | 96 to 97 |
| Cc1nc(SCc2cc(-c3ccc(F)cc3)oc2C)sc1CC(=O)O [Example 6(18), [2-({[5-(4-Fluorophenyl)-2-methyl-3-furyl]methyl}thio)-4-methyl-1,3-thiazol-5-yl]acetic acid] | 202 to 205 |
| Cc1oc(-c2ccc(F)cc2)cc1COc1cccc(CCCC(=O)O)c1 [Example 6(19), 4-(3-{[5-(4-Fluorophenyl)-2-methyl-3-furyl]methoxy}phenyl)butanoic acid] | 98 to 99 |
| Cc1cc(OCCc2cc(-c3ccc(C(F)(F)F)cc3)oc2C)ccc1CCC(=O)O [Example 6(22), 3-[2-Methyl-4-(2-{2-methyl-5-[4-(trifluoromethyl)phenyl]-3-furyl}ethoxy)phenyl]propionic acid] | 118 to 120 |
| Cc1oc(-c2ccc(C(F)(F)F)cc2)cc1CCOc1ccc(OCC(=O)O)cc1 [Example 6(23), [4-(2-{2-Methyl-5-[4-(trifluoromethyl)phenyl]-3-furyl}ethoxy)phenoxy]acetic acid] | 132 to 133 |
| Cc1oc(-c2ccc(C(F)(F)F)cc2)cc1CCCOc1ccc(OCC(=O)O)cc1 [Example 6(25), [4-(3-{2-Methyl-5-[4-(trifluoromethyl)phenyl]-3-furyl}propoxy)phenoxy]acetic acid] | 134 to 135 |
| CCc1oc(-c2ccc(C(F)(F)F)cc2)cc1CCCOc1ccc(CC(=O)O)cc1 [Example 6(27), [4-(3-{2-Ethyl-5-[4-(trifluoromethyl)phenyl]-3-furyl}propoxy)phenyl]acetic acid] | 121 to 122 |
| Cc1oc(-c2ccc(C(F)(F)F)cc2)cc1CCCOc1ccc(OC(C)(C)C(=O)O)cc1 [Example 6(31), 2-Methyl-2-[4-(3-{2-methyl-5-[4-(trifluoromethyl)phenyl]-3-furyl}propoxy)phenoxy]propionic acid] | 123 to 124 |
| Cc1oc(-c2ccc(C(F)(F)F)cc2)cc1COc1ccc2cc(CCC(=O)O)ccc2c1 [Example 6(34), 3-[6-({2-Methyl-5-[4-(trifluoromethyl)phenyl]-3-furyl}methoxy)-2-naphthyl]propionic acid] | 191 to 192 |
| Cc1nc(SCCc2cc(-c3ccc(F)cc3)oc2C)sc1CC(=O)O [Example 6(38), [2-({2-[5-(4-Fluorophenyl)-2-methyl-3-furyl]ethyl}thio)-4-methyl-1,3-thiazol-5-yl]acetic acid] | 124 to 126 |

The next lines start with the values.

| melting point [°C] | SMILES |
| --- | --- |
| 138 to 139 | CCc1oc(-c2ccc(C(F)(F)F)cc2)cc1CCCOc1ccc(OC)c(CC(=O)O)c1 [Example 6(39), [5-(3-{2-Ethyl-5-[4-(trifluoromethyl)phenyl]-3-furyl}propoxy)-2-methoxyphenyl]acetic acid] |
| 137 to 138 | CCc1oc(-c2ccc(C(F)(F)F)cc2)cc1CCCOc1cc(CC(=O)O)ccc1OC [Example 6(40), [3-(3-{2-Ethyl-5-[4-(trifluoromethyl)phenyl]-3-furyl}propoxy)-4-methoxyphenyl]acetic acid] |
| 102 to 103 | CCc1oc(-c2ccc(C(F)(F)F)cc2)cc1CCCOc1ccc(C(C)(C)C(=O)O)cc1 [Example 6(44), 2-[4-(3-{2-Ethyl-5-[4-(trifluoromethyl)phenyl]-3-furyl}propoxy)phenyl]-2-methylpropionic acid] |
| 94 to 95 | CCc1oc(-c2ccc(C(F)(F)F)cc2)cc1CCCOc1cccc(C(C)(C)C(=O)O)c1 [Example 6(45), 2-[3-(3-{2-Ethyl-5-[4-(trifluoromethyl)phenyl]-3-furyl}propoxy)phenyl]-2-methylpropionic acid] |
| 91 to 93 | CCc1oc(-c2ccc(C(F)(F)F)cc2)cc1CCCOc1cc(CC(=O)O)ccc1F [Example 6(46), [3-(3-{2-Ethyl-5-[4-(trifluoromethyl)phenyl]-3-furyl}propoxy)-4-fluorophenyl]acetic acid] |
| 128 to 129 | CCc1oc(-c2ccc(C(F)(F)F)cc2)cc1CCCOc1ccc(F)c(CC(=O)O)c1 [Example 6(47), [5-(3-{2-Ethyl-5-[4-(trifluoromethyl)phenyl]-3-furyl}propoxy)-2-fluorophenyl]acetic acid] |
| 109 to 110 | CCc1oc(-c2ccc(C(F)(F)F)cc2)cc1CCCOc1cccc(CC(=O)O)c1C [Example 6(50), [3-(3-{2-Ethyl-5-[4-(trifluoromethyl)phenyl]-3-furyl}propoxy)-2-methylphenyl]acetic acid] |
| 174 to 176 | COc1cccc(-c2cc(CSc3nc(C)c(CC(=O)O)s3)c(C)o2)c1 [Example 6(53), [2-({[5-(3-Methoxyphenyl)-2-methyl-3-furyl]methyl}thio)-4-methyl-1,3-thiazol-5-yl]acetic acid] |
| 81 to 82 | Cc1oc(-c2cccc(C(F)(F)F)c2)cc1COc1cccc(CSC(C)(C)C(=O)O)c1 [Example 6(59), 2-Methyl-2-{[3-({2-methyl-5-[3-(trifluoromethyl)phenyl]-3-furyl}methoxy)benzyl]thio}propionic acid] |
| 111 to 112 | COc1cccc(-c2cc(COc3ccc(OC(C)(C)C(=O)O)cc3)c(C)o2)c1 [Example 6(60), 2-(4-{[5-(3-Methoxyphenyl)-2-methyl-3-furyl]methoxy}phenoxy)-2-methylpropionic acid] |
| 83 to 84 | Cc1oc(-c2cccc(C(F)(F)F)c2)cc1COc1ccc(OC(C)(C)C(=O)O)cc1 [Example 6(63), 2-Methyl-2-[4-({2-methyl-5-[3-(trifluoromethyl)phenyl]-3-furyl}methoxy)phenoxy]propionic acid] |
| 89 to 90 | Cc1oc(-c2ccc(F)cc2)cc1COc1cccc(C(C)SC(C)(C)C(=O)O)c1 (centres unmarked) [Example 6(65), 2-{[1-(3-{[5-(4-Fluorophenyl)-2-methyl-3-furyl]methoxy}phenyl)ethyl]thio}-2-methylpropionic acid] |
| 75 to 77 | Cc1oc(-c2ccc(C(F)(F)F)cc2)cc1COc1cccc(C(C)SC(C)(C)C(=O)O)c1 (centres unmarked) [Example 6(66), 2-Methyl-2-({1-[3-({2-methyl-5-[4-(trifluoromethyl)phenyl]-3-furyl}methoxy)phenyl]ethyl}thio)propionic acid] |
